Assay results from ChEMBL document CHEMBL1157159, “Ester derivatives of gallic acid with potential toxicity toward L1210 leukemia cells” (Bioorg Med Chem, 2008).
pIC50: −log10 of the molar value. The source made the active and inactive calls. The rule behind the calls is not given here.

What was measured:
CCRF-CEM [1] = test: Cytotoxicity against human CEM cells after 72 hrs by MTT assay; type: functional, cell-based
L1210 [2] = test: Cytotoxicity against mouse L1210 cells after 72 hrs by MTT assay; type: functional, cell-based; details: L1210, 72 h
L1210 [3] = test: Decrease in cytoplasmic glutathione level in mouse L1210 cells; type: functional, cell-based
CCRF-CEM [4] = test: Induction of apoptosis in human CEM cells assessed as internucleosomal breakdown of DNA chromatin at 100 uM; type: functional, cell-based
Vero = test: Cytotoxicity against african green monkey VERO cells; type: cell-based; details: Chlorocebus sabaeus
L1210 [5] = test: Induction of apoptosis in mouse L1210 cells assessed as internucleosomal breakdown of DNA chromatin at 30 uM; type: functional, cell-based
[6] = Genotoxicity against african green monkey VERO cells; type: toxicity, cell-based; details: African green monkey (Chlorocebus sabaeus)
L1210 [7] = test: Induction of apoptosis in mouse L1210 cells assessed as internucleosomal breakdown of DNA chromatin at 100 uM; type: functional, cell-based
L1210 [8] = test: Cytotoxicity against mouse L1210 cells after 48 hrs by MTT assay; type: functional, cell-based; details: L1210, 48 h
L1210 [9] = test: Decrease in mitochondrial glutathione level in mouse L1210 cells; type: functional, cell-based
CCRF-CEM [10] = test: Cytotoxicity against human CEM cells after 24 hrs by MTT assay; type: functional, cell-based
CCRF-CEM [11] = test: Induction of apoptosis in human CEM cells assessed as internucleosomal breakdown of DNA chromatin at 30 uM; type: functional, cell-based
L1210 [12] = test: Decrease in cytoplasmic glutathione level in mouse L1210 cells at 100 uM; type: functional; set-up: scale not given: the % may be the effect or the level left

**Q.** Which results are given for O=C(O)c1cc(O)c(O)c(O)c1 [GALLIC ACID]?
**A.** pIC50 (CCRF-CEM [1]): < 4.30; pIC50 (L1210 [2]): 4.30; Activity (L1210 [3]): Active; Activity (CCRF-CEM [4]): Active; pIC50 (Vero): < 6.00; Activity (L1210 [5]): Active; pIC50 [6]: < 3.52; Activity (L1210 [7]): Active; pIC50 (L1210 [8]): < 4.30; Activity (L1210 [9]): Active; pIC50 (CCRF-CEM [10]): < 4.30; Activity (CCRF-CEM [11]): Active; Activity (L1210 [12]): 75%
